From patent publication US9167821B2 (priority 2009, dated 2015)

Legend:
Plasmopara viticola = experiment: Plasmopara test (grapevine)/protective; type: in vivo; conditions: grapevine plants, protective spray, 10 ppm active ingredient, evaluation 6 days after inoculation, 0% = control, 100% = no infection; for pest or weed control at 10 ppm: Plasmopara viticola, 144 h, read-out: efficacy
Method: Plasmopara Test (Grapevine)/Protective
To prepare an appropriate active ingredient preparation, 1 part by weight of active ingredient is mixed with the stated amounts of solvent and emulsifier, and the concentrate is diluted with water to the desired concentration.
To test for protective efficacy, young plants are sprayed with the active ingredient preparation at the stated application rate. After the spray coating has dried on, the plants are inoculated with an aqueous spore suspension of Plasmopara viticola and then remain in an incubation cabinet at about 20° C. and 100% relative atmospheric humidity for 1 day. The plants are then placed in a greenhouse at approx. 21° C. and approx. 90% air humidity for 4 days. The plants are then moistened and placed in an incubation cabinet for 1 day.
Evaluation follows 6 days after the inoculation.

Phytophthora infestans = experiment: whole plant or invertebrate; type: in vivo; conditions: for pest or weed control at 10 ppm: Phytophthora infestans, in Solanum lycopersicum, 72 h, read-out: efficacy
[1] = for log P (HCOOH) / logp [b]: pH 2.7; for logp [a]: pH 2.3; for logp [c]: pH 7.8
Excerpt: (§1) The determination is effected in the acidic range at pH 2.3 using 0.1% aqueous phosphoric acid and acetonitrile as eluents; linear gradient from 10% acetonitrile to 95% acetonitrile. • ^[b] The LC-MS determination in the acidic range is effected at pH 2.7 using 0.1% aqueous formic acid and acetonitrile (contains 0.1% formic acid) as eluents; linear gradient from 10% acetonitrile to 95% acetonitrile. • ^[c] The LC-MS determination in the neutral range is effected at pH 7.8 using 0.001 molar aqueous ammonium hydrogencarbonate solution and acetonitrile as eluents; linear gradient from 10% acetonitrile to 95% acetonitrile.
(§2) The calibration is effected with unbranched alkan-2-ones (having 3 to 16 carbon atoms) with known log P values (determination of the log P values using the retention times by linear interpolation between two successive alkanones).

Excerpt for physchem: as §1, §2

Molecule: O=Cc1ccccc1C1CC(c2csc(C3CCN(C(=O)Cn4nc(C(F)F)cc4C(F)F)CC3)n2)=NO1 (centres unmarked) [I-26, 2-{3-[2-(1-{[3,5-Bis(difluoromethyl)-1H-pyrazol-1-yl]acetyl}piperidin-4-yl)-1,3-thiazol-4-yl]-4,5-dihydro-1,2-oxazol-5-yl}benzaldehyde]
- chromatographic logP (physchem; pH 2.7, logp [b]): 2.98
- pest or weed control at 10 ppm (Plasmopara viticola): 100%
- pest or weed control at 10 ppm (Phytophthora infestans): 97%

Molecule: Nc1ccccc1C1CC(c2csc(C3CCN(C(=O)Cn4nc(C(F)F)cc4C(F)F)CC3)n2)=NO1 (centres unmarked) [I-41, 1-(4-{4-[5-(2-Aminophenyl)-4,5-dihydro-1,2-oxazol-3-yl]-1,3-thiazol-2-yl}piperidin-1-yl)-2-[3,5-bis(difluoromethyl)-1H-pyrazol-1-yl]ethanone]
- chromatographic logP (physchem; pH 2.3): 2.7
- chromatographic logP (physchem; pH 7.8, logp [c]): 2.71
- pest or weed control at 10 ppm (Plasmopara viticola): 100%
- pest or weed control at 10 ppm (Phytophthora infestans): 94%

Molecule: O=C(Cn1nc(C(F)F)cc1C(F)F)N1CCC(c2nc(C3=NOC(c4ccccc4[N+](=O)[O-])C3)cs2)CC1 (centres unmarked) [I-10, 2-[3,5-Bis(difluoromethyl)-1H-pyrazol-1-yl]-1-(4-{4-[5-(2-nitrophenyl)-4,5-dihydro-1,2-oxazol-3-yl]-1,3-thiazol-2-yl}piperidin-1-yl)ethanone]
- chromatographic logP (physchem; pH 2.7, logp [b]): 3.19
- pest or weed control at 10 ppm (Plasmopara viticola): 100%
- pest or weed control at 10 ppm (Phytophthora infestans): 97%

Molecule: O=C(Cn1nc(C(F)F)cc1C(F)F)N1CCC(c2nc(C=NO)cs2)CC1 [2-(1-{[3,5-Bis(difluoromethyl)-1H-pyrazol-1-yl]acetyl}piperidin-4-yl)-1,3-thiazole-4-carbaldehyde oxime]
- chromatographic logP (physchem; pH 2.7, log P (HCOOH)): 1.93
- log P (HCOOH) [1]: 1.98

Molecule: CCS(=O)(=O)Cc1ccccc1C1CC(c2csc(C3CCN(C(=O)Cn4nc(C(F)F)cc4C(F)F)CC3)n2)=NO1 (racemic) [I-53]
- logp [b] [1]: 2.76^[b]

Molecule: COCCOc1ccccc1C1CC(c2csc(C3CCN(C(=O)Cn4nc(C(F)F)cc4C(F)F)CC3)n2)=NO1 (centres unmarked) [I-19, 2-[3,5-Bis(difluoromethyl)-1H-pyrazol-1-yl]-1-[4-(4-{5-[2-(2-methoxyethoxy)phenyl]-4,5-dihydro-1,2-oxazol-3-yl}-1,3-thiazol-2-yl)piperidin-1-yl]ethanone]
- chromatographic logP (physchem; pH 2.7, logp [b]): 3.26
- chromatographic logP (physchem; pH 7.8, logp [c]): 3.18
- pest or weed control at 10 ppm (Plasmopara viticola): 96%
- pest or weed control at 10 ppm (Phytophthora infestans): 96%

Molecule: CC#CCOc1ccc(C2CC(c3csc(C4CCN(C(=O)Cn5nc(C(F)F)cc5C(F)F)CC4)n3)=NO2)cc1 (racemic) [I-48]
- logp [a] [1]: 3.43^[a]
- logp [c] [1]: 3.42^[c];

Molecule: O=C(CC(F)(F)F)Oc1ccccc1C1CC(c2csc(C3CCN(C(=O)Cn4nc(C(F)F)cc4C(F)F)CC3)n2)=NO1 (racemic) [I-36]
- logp [a] [1]: 9.43^[a];
- logp [c] [1]: 3.52^[c]

Molecule: CC#CCOc1cccc(F)c1C1CC(c2csc(C3CCN(C(=O)Cn4nc(C(F)F)cc4C(F)F)CC3)n2)=NO1 (racemic) [I-29]
- logp [a] [1]: 3.46^[a];
- logp [c] [1]: 3.42^[c]

Molecule: CC#CCOc1ccccc1C1CC(c2csc(C3CCN(C(=O)Cn4nc(C(F)F)cc4C(F)F)CC3)n2)=NO1 (racemic) [I-35]
- efficacy (Phytophthora infestans; tomato plants, protective spray, 10 ppm active ingredient, evaluation 3 days after inoculation, 0% = control, 100% = no infection): 88%
- logp [a] [1]: 3.65^[a]
- logp [c] [1]: 3.55^[c];

Molecule: CCC#CCOc1ccc(C2CC(c3csc(C4CCN(C(=O)Cn5nc(C(F)F)cc5C(F)F)CC4)n3)=NO2)cc1 (racemic) [I-47]
- logp [a] [1]: 3.76^[a]
- logp [c] [1]: 3.74^[c];

Molecule: CCCCOCc1ccccc1C1CC(c2csc(C3CCN(C(=O)Cn4nc(C(F)F)cc4C(F)F)CC3)n2)=NO1 (racemic) [I-16]
- logp [b] [1]: 4.24^[b]

Molecule: CC(C)=CCOc1ccccc1C1CC(c2csc(C3CCN(C(=O)Cn4nc(C(F)F)cc4C(F)F)CC3)n2)=NO1 (centres unmarked) [I-20, 2-[3,5-Bis(difluoromethyl)-1H-pyrazol-1-yl]-1-{4-[4-(5-{2-[(3-methylbut-2-en-1-yl)oxy]phenyl}-4,5-dihydro-1,2-oxazol-3-yl)-1,3-thiazol-2-yl]piperidin-1-yl}ethanone]
- chromatographic logP (physchem; pH 2.7, logp [b]): 4.19
- chromatographic logP (physchem; pH 7.8, logp [c]): 4.11
- pest or weed control at 10 ppm (Plasmopara viticola): 98%
- pest or weed control at 10 ppm (Phytophthora infestans): 95%

Molecule: C#CCOc1cccc(F)c1C1CC(c2csc(C3CCN(C(=O)Cn4nc(C(F)F)cc4C(F)F)CC3)n2)=NO1 (racemic) [I-30]
- logp [a] [1]: 3.18^[a];
- logp [c] [1]: 3.15^[c]

Molecule: CCC#CCOc1cccc(C2CC(c3csc(C4CCN(C(=O)Cn5nc(C(F)F)cc5C(F)F)CC4)n3)=NO2)c1 (racemic) [I-34]
- logp [a] [1]: 3.83^[a]
- logp [c] [1]: 3.74^[c];

Molecule: O=C(Cn1nc(C(F)F)cc1C(F)F)N1CCC(F)(c2nc(C3=NOC(c4ccccc4F)C3)cs2)CC1 (racemic) [I-4]
- efficacy (Plasmopara viticola): 100%
- logp [b] [1]: 3.49^[b]

Molecule: C=CCOc1cccc(Cl)c1C1CC(c2csc(C3CCN(C(=O)Cn4nc(C(F)F)cc4C(F)F)CC3)n2)=NO1 (centres unmarked) [I-51, 1-[4-(4-{5-[2-(Allyloxy)-6-chlorophenyl]-4,5-dihydro-1,2-oxazol-3-yl}-1,3-thiazol-2-yl)piperidin-1-yl]-2-[3,5-bis(difluoromethyl)-1H-pyrazol-1-yl]ethanone]
- chromatographic logP (physchem; pH 2.7, logp [b]): 3.82
- chromatographic logP (physchem; pH 7.8, logp [c]): 3.71

Molecule: O=C(Cn1nc(C(F)F)cc1C(F)F)N1CCC(c2nc(C3=NOC(c4ccccc4CO)C3)cs2)CC1 (centres unmarked) [I-45, 2-[3,5-Bis(difluoromethyl)-1H-pyrazol-1-yl]-1-[4-(4-{5-[2-(hydroxymethyl)phenyl]-4,5-dihydro-1,2-oxazol-3-yl}-1,3-thiazol-2-yl)piperidin-1-yl]ethanone]
- chromatographic logP (physchem; pH 2.7, logp [b]): 2.45

Molecule: O=C(Oc1ccccc1C1CC(c2csc(C3CCN(C(=O)Cn4nc(C(F)F)cc4C(F)F)CC3)n2)=NO1)C1CC1 (racemic) [I-33]
- logp [a] [1]: 3.34^[a]
- logp [c] [1]: 3.28^[c];

Molecule: O=C(Cn1nc(C(F)F)cc1C(F)F)N1CCC(c2nc(C3=NOC(c4ccccc4COCC(F)(F)F)C3)cs2)CC1 (racemic) [I-52]
- logp [b] [1]: 3.4^[b]
- logp [c] [1]: 3.6^[c];

Molecule: CC(C)(C)OC(=O)N1CCC(c2nc(C3=NOC(c4c(F)cccc4C=O)C3)cs2)CC1 (centres unmarked) [X-a-13, tert-Butyl 4-{4-[5-(2-fluoro-6-formylphenyl)-4,5-dihydro-1,2-oxazol-3-yl]-1,3-thiazol-2-yl}piperidine-1-carboxylate]
- chromatographic logP (physchem; pH 2.7, log P (HCOOH)): 3.62

Molecule: CC(C)(C)OC(=O)N1CCC(c2nc(C3=NOC(c4ccccc4NS(C)(=O)=O)C3)cs2)CC1 (centres unmarked) [X-a-4, tert-Butyl 4-[4-(5-{2-[(methylsulphonyl)amino]phenyl}-4,5-dihydro-1,2-oxazol-3-yl)-1,3-thiazol-2-yl]piperidine-1-carboxylate]
- chromatographic logP (physchem; pH 2.7, log P (HCOOH)): 3

Molecule: N=C(N)SCc1ccccc1C1CC(c2csc(C3CCN(C(=O)Cn4nc(C(F)F)cc4C(F)F)CC3)n2)=NO1 (centres unmarked) [2-{3-[2-(1-{[3,5-Bis(difluoromethyl)-1H-pyrazol-1-yl]acetyl}piperidin-4-yl)-1,3-thiazol-4-yl]-4,5-dihydro-1,2-oxazol-5-yl}benzyl imidothiocarbamate]
- log P (HCOOH) [1]: 1.68

Molecule: O=Cc1csc(C2CCN(C(=O)Cn3nc(C(F)F)cc3C(F)F)CC2)n1 [VI-2, 2-(1-{[3,5-Bis(difluoromethyl)-1H-pyrazol-1-yl]acetyl}piperidin-4-yl)-1,3-thiazole-4-carbaldehyde]
- chromatographic logP (physchem; pH 2.7, log P (HCOOH)): 1.93

Molecule: tert-Butyl 4-[4-(5-{2-[(cyclopropylmethoxy)carbonyl]phenyl}-4,5-dihydro-1,2-oxazol-3-yl)-1,3-thiazol-2-yl]piperidine-1-carboxylate [X-a-10]
- log P (HCOOH) [1]: 4.99

Molecule: COC(=O)c1ccccc1C1CC(c2nc(C3CCN(C(=O)Cn4nc(C(F)F)cc4C(F)F)CC3)sc2Cl)=NO1 (centres unmarked) [I-46, methyl 2-{3-[2-(1-{[3,5-bis(difluoromethyl)-1H-pyrazol-1-yl]acetyl}piperidin-4-yl)-5-chloro-1,3-thiazol-4-yl]-4,5-dihydro-1,2-oxazol-5-yl}benzoate]
- chromatographic logP (physchem; pH 2.7, logp [b]): 3.98

Molecule: COCCOc1cccc(C2CC(c3csc(C4CCN(C(=O)Cn5nc(C(F)F)cc5C(F)F)CC4)n3)=NO2)c1 (centres unmarked) [I-28, 2-[3,5-Bis(difluoromethyl)-1H-pyrazol-1-yl]-1-[4-(4-{5-[3-(2-methoxyethoxy)phenyl]-4,5-dihydro-1,2-oxazol-3-yl}-1,3-thiazol-2-yl)piperidin-1-yl]ethanone]
- chromatographic logP (physchem; pH 2.7, logp [b]): 3.03
- chromatographic logP (physchem; pH 7.8, logp [c]): 3.04

Molecule: C=C(C)COc1ccccc1C1CC(c2csc(C3CCN(C(=O)Cn4nc(C(F)F)cc4C(F)F)CC3)n2)=NO1 (centres unmarked) [I-18, 2-[3,5-bis(difluoromethyl)-1H-pyrazol-1-yl]-1-{4-[4-(5-{2-[(2-methylprop-2-en-1-yl)oxy]phenyl}-4,5-dihydro-1,2-oxazol-3-yl)-1,3-thiazol-2-yl]piperidin-1-yl}ethanone]
- chromatographic logP (physchem; pH 2.7, logp [b]): 3.96
- chromatographic logP (physchem; pH 7.8, logp [c]): 3.92

Molecule: c1ccc(C2CC(c3csc(C4CCNCC4)n3)=NO2)c(OCC2CCCCC2)c1 (centres unmarked) [XII-7, 4-(4-{5-[2-(Cyclohexylmethoxy)phenyl]-4,5-dihydro-1,2-oxazol-3-yl}-1,3-thiazol-2-yl)piperidinium chloride]
- chromatographic logP (physchem; pH 2.7, log P (pH2.7)): 1.9

Molecule: CC(C)(C)OC(=O)N1CCC(F)(c2nc(C3=NOC(c4ccccc4)C3)cs2)CC1 (centres unmarked) [X-a-1, tert-Butyl 4-fluoro-4-[4-(5-phenyl-4,5-dihydro-1,2-oxazol-3-yl)-1,3-thiazol-2-yl]piperidine-1-carboxylate]
- chromatographic logP (physchem; pH 2.7, log P (HCOOH)): 4.28

Molecule: CC(C)(C)OC(=O)N1CCC(F)(c2nc(C=NO)cs2)CC1 (mixture of isomers) [tert-Butyl 4-fluoro-4-{4-[(E/Z)-(hydroxyimino)methyl]-1,3-thiazol-2-yl}piperidine-1-carboxylate]
- log P (HCOOH) [1]: 2.53
